Assay results published in patent publication US10890577B2, “Treatment methods having reduced drug-related toxicity and methods of identifying the likelihood of patient harm from prescribed medications” (TABULA RASA HEALTHCARE, INC., priority 2016, dated 2021).

Tests used:
[1] = molecular target: L-type Ca^2+ currents (Homo sapiens, UniProt Q13936); conditions: cited from earlier work
[2] = molecular target: IKr (Homo sapiens, UniProt Q12809); conditions: cited from earlier work
[3] = molecular target: CYP2D6 (Homo sapiens, UniProt P10635); conditions: in vivo; cited from earlier work
[4] = CYP2D6 inhibited; 100/(100-MP); over the course of multiple doses
[5] = in vivo; cited from earlier work
[6] = value inserted in K1 equation as (100-97)/100; cited from earlier work
[7] = value inserted in K1 equation; read-out: Cmax of the drug at a test dose; cited from earlier work
[8] = molecular target: IKs (Homo sapiens, UniProt P51787); conditions: cited from earlier work
[9] = system: QTc interval; conditions: positive control; cited from earlier work

Sequence of IKr (Q12809 whole entry): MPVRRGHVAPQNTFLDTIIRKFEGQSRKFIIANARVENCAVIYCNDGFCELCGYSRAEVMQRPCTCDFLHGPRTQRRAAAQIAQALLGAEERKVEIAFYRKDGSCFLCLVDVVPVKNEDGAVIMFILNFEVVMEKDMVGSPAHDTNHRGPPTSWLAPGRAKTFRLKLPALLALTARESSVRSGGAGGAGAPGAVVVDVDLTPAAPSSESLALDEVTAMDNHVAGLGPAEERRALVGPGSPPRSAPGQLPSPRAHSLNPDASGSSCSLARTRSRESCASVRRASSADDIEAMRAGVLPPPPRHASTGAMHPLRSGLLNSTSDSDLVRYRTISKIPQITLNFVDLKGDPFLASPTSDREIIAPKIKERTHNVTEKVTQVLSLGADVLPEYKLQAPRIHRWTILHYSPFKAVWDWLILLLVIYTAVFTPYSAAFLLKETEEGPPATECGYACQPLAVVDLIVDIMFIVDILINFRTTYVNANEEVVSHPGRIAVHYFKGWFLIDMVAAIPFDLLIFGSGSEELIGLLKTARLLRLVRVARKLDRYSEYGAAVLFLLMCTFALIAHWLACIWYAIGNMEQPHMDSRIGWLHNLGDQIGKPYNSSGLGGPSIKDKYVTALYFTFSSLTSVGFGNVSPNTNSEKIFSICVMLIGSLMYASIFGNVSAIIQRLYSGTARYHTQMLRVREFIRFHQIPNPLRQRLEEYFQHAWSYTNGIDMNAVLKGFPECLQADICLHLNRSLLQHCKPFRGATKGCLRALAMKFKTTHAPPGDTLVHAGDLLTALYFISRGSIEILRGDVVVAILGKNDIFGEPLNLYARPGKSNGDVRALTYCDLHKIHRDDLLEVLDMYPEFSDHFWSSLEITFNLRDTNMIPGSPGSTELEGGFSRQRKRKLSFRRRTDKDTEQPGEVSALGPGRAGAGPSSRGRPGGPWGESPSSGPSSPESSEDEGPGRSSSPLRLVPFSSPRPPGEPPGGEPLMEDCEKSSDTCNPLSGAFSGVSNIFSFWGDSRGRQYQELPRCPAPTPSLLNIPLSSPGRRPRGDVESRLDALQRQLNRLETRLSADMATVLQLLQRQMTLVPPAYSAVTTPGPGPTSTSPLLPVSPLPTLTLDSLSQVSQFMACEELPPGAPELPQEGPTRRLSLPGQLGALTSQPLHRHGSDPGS
Sequence of L-type Ca^2+ currents (Q13936 whole entry): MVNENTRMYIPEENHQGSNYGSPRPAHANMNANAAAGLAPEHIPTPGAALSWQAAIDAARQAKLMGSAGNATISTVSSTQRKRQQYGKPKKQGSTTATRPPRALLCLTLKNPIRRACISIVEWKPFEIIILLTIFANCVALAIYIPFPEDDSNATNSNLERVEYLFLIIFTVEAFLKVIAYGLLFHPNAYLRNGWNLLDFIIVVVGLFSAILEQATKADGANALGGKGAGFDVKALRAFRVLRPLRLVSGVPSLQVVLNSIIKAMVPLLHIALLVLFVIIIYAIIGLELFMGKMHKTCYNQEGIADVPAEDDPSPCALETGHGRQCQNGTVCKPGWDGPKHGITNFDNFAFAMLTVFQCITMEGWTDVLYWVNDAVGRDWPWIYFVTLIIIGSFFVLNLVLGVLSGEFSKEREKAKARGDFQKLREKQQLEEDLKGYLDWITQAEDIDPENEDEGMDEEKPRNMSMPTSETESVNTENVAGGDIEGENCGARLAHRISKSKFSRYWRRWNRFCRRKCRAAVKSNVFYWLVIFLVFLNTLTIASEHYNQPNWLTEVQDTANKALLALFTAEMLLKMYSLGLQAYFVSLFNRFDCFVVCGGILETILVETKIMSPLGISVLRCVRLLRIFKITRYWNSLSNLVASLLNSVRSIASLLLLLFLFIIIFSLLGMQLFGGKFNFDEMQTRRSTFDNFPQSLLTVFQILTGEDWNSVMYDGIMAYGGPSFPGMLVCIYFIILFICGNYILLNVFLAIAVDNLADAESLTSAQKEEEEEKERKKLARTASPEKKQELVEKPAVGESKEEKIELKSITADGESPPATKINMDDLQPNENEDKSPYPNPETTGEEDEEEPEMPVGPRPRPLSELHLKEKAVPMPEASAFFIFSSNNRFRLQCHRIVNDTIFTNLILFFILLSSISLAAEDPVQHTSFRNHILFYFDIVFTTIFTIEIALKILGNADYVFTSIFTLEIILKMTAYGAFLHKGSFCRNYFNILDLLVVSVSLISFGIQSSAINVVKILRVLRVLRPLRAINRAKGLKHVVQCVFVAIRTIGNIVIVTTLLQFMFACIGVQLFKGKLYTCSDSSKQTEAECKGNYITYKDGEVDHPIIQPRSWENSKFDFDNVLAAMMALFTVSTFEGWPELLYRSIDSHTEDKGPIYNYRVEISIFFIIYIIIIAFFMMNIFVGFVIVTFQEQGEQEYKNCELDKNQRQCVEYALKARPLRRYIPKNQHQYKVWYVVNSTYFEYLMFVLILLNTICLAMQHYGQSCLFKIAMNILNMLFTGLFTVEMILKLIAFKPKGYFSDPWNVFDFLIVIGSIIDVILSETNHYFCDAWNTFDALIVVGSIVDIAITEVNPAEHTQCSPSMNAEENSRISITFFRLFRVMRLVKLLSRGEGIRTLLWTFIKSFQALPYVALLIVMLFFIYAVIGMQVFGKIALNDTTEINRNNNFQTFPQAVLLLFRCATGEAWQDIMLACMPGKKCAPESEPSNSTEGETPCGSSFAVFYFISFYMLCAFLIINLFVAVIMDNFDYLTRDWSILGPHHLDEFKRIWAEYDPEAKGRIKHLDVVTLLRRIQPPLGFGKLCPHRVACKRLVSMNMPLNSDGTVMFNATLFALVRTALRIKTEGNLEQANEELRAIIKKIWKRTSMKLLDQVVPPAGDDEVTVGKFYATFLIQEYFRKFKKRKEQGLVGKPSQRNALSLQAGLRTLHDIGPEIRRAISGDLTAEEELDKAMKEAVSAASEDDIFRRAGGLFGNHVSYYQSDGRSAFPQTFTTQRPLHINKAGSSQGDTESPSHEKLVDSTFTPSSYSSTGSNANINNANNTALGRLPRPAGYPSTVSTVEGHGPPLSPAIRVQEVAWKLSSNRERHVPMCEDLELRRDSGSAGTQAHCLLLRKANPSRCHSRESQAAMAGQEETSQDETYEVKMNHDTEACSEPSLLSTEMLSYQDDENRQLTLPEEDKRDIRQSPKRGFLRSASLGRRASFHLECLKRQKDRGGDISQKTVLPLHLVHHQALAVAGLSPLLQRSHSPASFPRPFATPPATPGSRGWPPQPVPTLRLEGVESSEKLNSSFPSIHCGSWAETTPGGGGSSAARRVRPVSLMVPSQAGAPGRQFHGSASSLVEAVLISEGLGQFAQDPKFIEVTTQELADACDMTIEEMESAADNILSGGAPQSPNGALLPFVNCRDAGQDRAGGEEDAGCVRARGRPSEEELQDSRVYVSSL
Sequence of L-type Ca^2+ currents (Q08289 whole entry partner): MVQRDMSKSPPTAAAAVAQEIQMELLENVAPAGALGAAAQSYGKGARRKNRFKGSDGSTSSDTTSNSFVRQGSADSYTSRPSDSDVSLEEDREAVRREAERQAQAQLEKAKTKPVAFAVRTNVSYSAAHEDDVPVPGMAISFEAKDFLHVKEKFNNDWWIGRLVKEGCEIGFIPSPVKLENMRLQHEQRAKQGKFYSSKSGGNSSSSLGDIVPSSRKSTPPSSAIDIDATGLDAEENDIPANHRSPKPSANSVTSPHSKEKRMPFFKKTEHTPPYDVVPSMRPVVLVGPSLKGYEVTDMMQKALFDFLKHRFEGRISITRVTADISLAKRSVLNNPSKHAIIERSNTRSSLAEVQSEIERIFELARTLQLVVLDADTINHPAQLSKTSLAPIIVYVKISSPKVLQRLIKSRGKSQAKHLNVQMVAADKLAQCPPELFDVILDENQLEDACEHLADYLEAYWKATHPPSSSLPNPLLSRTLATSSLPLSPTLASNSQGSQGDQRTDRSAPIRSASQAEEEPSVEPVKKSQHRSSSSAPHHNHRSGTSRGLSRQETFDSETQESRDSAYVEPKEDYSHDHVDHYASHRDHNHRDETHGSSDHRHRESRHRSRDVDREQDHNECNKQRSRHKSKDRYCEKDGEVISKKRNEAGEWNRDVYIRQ
Sequence of L-type Ca^2+ currents (P54289 25-956 partner limits assumed): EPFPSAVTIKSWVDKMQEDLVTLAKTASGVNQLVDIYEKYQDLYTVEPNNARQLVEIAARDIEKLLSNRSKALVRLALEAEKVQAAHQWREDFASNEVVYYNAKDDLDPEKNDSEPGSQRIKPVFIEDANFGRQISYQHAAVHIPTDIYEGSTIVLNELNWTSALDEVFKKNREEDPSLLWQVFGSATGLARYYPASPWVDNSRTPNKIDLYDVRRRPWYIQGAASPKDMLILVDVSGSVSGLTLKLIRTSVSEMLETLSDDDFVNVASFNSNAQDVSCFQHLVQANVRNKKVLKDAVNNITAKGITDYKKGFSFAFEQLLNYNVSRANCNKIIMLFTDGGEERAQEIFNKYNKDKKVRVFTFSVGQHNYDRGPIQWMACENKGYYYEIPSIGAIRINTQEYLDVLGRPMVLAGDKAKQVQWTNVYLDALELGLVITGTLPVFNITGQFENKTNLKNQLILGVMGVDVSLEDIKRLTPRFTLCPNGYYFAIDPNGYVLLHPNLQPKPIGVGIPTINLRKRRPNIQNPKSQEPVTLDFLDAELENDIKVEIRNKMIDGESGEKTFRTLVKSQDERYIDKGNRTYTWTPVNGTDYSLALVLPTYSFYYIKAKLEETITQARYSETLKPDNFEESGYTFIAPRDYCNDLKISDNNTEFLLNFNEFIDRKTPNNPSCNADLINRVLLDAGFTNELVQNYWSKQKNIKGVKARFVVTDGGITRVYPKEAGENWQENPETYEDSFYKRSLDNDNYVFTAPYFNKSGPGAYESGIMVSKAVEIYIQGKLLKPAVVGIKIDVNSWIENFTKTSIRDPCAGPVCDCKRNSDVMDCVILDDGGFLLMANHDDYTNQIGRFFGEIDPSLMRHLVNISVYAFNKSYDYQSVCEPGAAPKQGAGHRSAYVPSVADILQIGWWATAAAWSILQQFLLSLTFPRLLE
Sequence of L-type Ca^2+ currents (P54289 957-1103 partner limits assumed): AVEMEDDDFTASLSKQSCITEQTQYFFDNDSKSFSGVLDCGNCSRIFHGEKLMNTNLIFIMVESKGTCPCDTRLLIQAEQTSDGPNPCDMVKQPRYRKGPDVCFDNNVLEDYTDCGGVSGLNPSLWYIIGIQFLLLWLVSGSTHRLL

Structure (SMILES): CCCCc1oc2ccccc2c1C(=O)c1cc(I)c(OCCN(CC)CC)c(I)c1 [Amiodarone]
- block of L-type Ca2+ currents [1]: blocks L-type Ca^2+ currents

Structure (SMILES): COc1ccccc1OCC(O)CN1CCN(CC(=O)Nc2c(C)cccc2C)CC1 (centres unmarked) [Ranolazine]
- block of IKr [2]: blocks IKr

Structure (SMILES): Cc1cccc(C)c1OCC(C)N (centres unmarked) [mexiletine]
- cleared by CYP2D6 [3]: 75%
- increase in concentration [4]: ~4 fold
- F (bioavailability) [5]: 95%

Structure (SMILES): CC(C)(C)c1ccc(C(O)CCCN2CCC(C(O)(c3ccccc3)c3ccccc3)CC2)cc1 (centres unmarked) [terfenadine]
- Protein binding of the drug [6]: 97%
- Cmax [7]: 3.18 nM

Structure (SMILES): CC1Cc2ccccc2N1NC(=O)c1ccc(Cl)c(S(N)(=O)=O)c1 (centres unmarked) [Indapamide]
- block of IKs [8]: inhibit IKs

Structure (SMILES): COc1c(N2C[C@@H]3CCCN[C@@H]3C2)c(F)cc2c(=O)c(C(=O)O)cn(C3CC3)c12 [moxifloxacin]
- QT prolongation added to the QTc interval [9]: 7-10 milliseconds

Structure (SMILES): Nc1nc(N)c2nc(-c3ccccc3)c(N)nc2n1 [triamterene]
- block of IKr [2]: significant block
- block of IKs [8]: significant block
